From ChEMBL document CHEMBL3822364, “Synthesis, characterization and antimicrobial activity of novel Schiff base tethered boronate esters of 1,2-O-isopropylidene-α-d-xylofuranose” (2016)
In brackets after ≈: the same amount, converted by molar mass.

Columns and labels:
[1] = system: Streptococcus mutans; test: Antibacterial activity against Streptococcus mutans MTCC 497 assessed as zone of inhibition at 100 ug/well measured after 24 hrs by agar well diffusion method; format: functional; settings: MTCC 497, 24 h, read-out: DIZ
[2] = system: Micrococcus luteus; test: Antibacterial activity against Micrococcus luteus MTCC 106 assessed as zone of inhibition at 100 ug/well measured after 24 hrs by agar well diffusion method; format: functional; settings: MTCC 106, 24 h, read-out: DIZ
[3] = system: Staphylococcus aureus; test: Antibacterial activity against Staphylococcus aureus MTCC 3160 assessed as zone of inhibition at 100 ug/well measured after 24 hrs by agar well diffusion method; format: functional; settings: MTCC 3160, 24 h, read-out: DIZ
[4] = system: Salmonella paratyphi; test: Antibacterial activity against Salmonella paratyphi assessed as zone of inhibition at 100 ug/well measured after 24 hrs by agar well diffusion method; format: functional, Salmonella enterica subsp. enterica serovar Paratyphi A; settings: Salmonella enterica, read-out: DIZ
[5] = system: Salmonella typhi; test: Antibacterial activity against Salmonella typhi assessed as zone of inhibition at 100 ug/well measured after 24 hrs by agar well diffusion method; format: functional, Salmonella enterica subsp. enterica serovar Typhi; settings: Salmonella enterica, read-out: DIZ
[6] = system: Klebsiella pneumoniae; test: Antibacterial activity against Klebsiella pneumoniae MTCC 3384 assessed as zone of inhibition at 100 ug/well measured after 24 hrs by agar well diffusion method; format: functional; settings: MTCC 3384, 24 h, read-out: DIZ
[7] = system: Candida albicans; test: Antifungal activity against Candida albicans MTCC 3017 assessed as zone of inhibition at 100 ug/well measured after 48 hrs by agar well diffusion method; format: functional; settings: MTCC 3017, 48 h, read-out: DIZ
[8] = system: Aspergillus fumigatus; test: Antifungal activity against Aspergillus fumigatus MTCC 343 assessed as zone of inhibition at 100 ug/well measured after 48 hrs by agar well diffusion method; format: functional; settings: MTCC 343, 48 h, read-out: DIZ
[9] = system: Streptococcus mutans; test: Antibacterial activity against Streptococcus mutans MTCC 497 measured after 24 hrs by NCCL protocol based broth dilution method; format: functional; settings: MTCC 497, 24 h
[10] = system: Micrococcus luteus; test: Antibacterial activity against Micrococcus luteus MTCC 106 measured after 24 hrs by NCCL protocol based broth dilution method; format: functional; settings: MTCC 106, 24 h
[11] = system: Staphylococcus aureus; test: Antibacterial activity against Staphylococcus aureus MTCC 3160 measured after 24 hrs by NCCL protocol based broth dilution method; format: functional; settings: MTCC 3160, 24 h
[12] = system: Salmonella paratyphi; test: Antibacterial activity against Salmonella paratyphi measured after 24 hrs by NCCL protocol based broth dilution method; format: functional, Salmonella enterica subsp. enterica serovar Paratyphi A; settings: Salmonella enterica
[13] = system: Salmonella typhi; test: Antibacterial activity against Salmonella typhi measured after 24 hrs by NCCL protocol based broth dilution method; format: functional, Salmonella enterica subsp. enterica serovar Typhi; settings: Salmonella enterica
[14] = system: Klebsiella pneumoniae; test: Antibacterial activity against Klebsiella pneumoniae MTCC 3384 measured after 24 hrs by NCCL protocol based broth dilution method; format: functional; settings: MTCC 3384, 24 h
[15] = system: Candida albicans; test: Antifungal activity against Candida albicans MTCC 3017 measured after 48 hrs by NCCL protocol based broth dilution method; format: functional; settings: MTCC 3017, 48 h
[16] = system: Aspergillus fumigatus; test: Antifungal activity against Aspergillus fumigatus MTCC 343 measured after 48 hrs by NCCL protocol based broth dilution method; format: functional; settings: MTCC 343, 48 h

Compound	zone of inhibition at 100 µg/disc [1]	zone of inhibition at 100 µg/disc [2]	zone of inhibition at 100 µg/disc [3]	zone of inhibition at 100 µg/disc [4]	zone of inhibition at 100 µg/disc [5]	zone of inhibition at 100 µg/disc [6]	zone of inhibition at 100 µg/disc [7]	zone of inhibition at 100 µg/disc [8]	MIC [9]	MIC [10]	MIC [11]	MIC [12]	MIC [13]	MIC [14]	MIC [15]	MIC [16]
CC1(C)O[C@H]2O[C@@H]3COB(c4cccc(/C=N/c5ccc(Br)cc5)c4)O[C@@H]3[C@H]2O1	20 mm	14 mm	13 mm	21 mm	22 mm	18 mm	16 mm	0 mm	62.5 µg/mL (≈ 136 µM)	125 µg/mL (≈ 273 µM)	250 µg/mL (≈ 546 µM)	62.5 µg/mL (≈ 136 µM)	31.2 µg/mL (≈ 68.2 µM)	62.5 µg/mL (≈ 136 µM)	125 µg/mL (≈ 273 µM)	250 µg/mL (≈ 546 µM)
CC(C)c1ccc(/N=C/c2ccc(B3OC[C@H]4O[C@@H]5OC(C)(C)O[C@@H]5[C@H]4O3)cc2)cc1	19 mm	13 mm	16 mm	0 mm	22 mm	24 mm	12 mm	0 mm	125 µg/mL (≈ 297 µM)	250 µg/mL (≈ 593 µM)	125 µg/mL (≈ 297 µM)	500 µg/mL (≈ 1190 µM)	62.5 µg/mL (≈ 148 µM)	31.2 µg/mL (≈ 74.2 µM)	250 µg/mL (≈ 593 µM)	500 µg/mL (≈ 1190 µM)
COc1ccc(/N=C/c2cccc(B3OC[C@H]4O[C@@H]5OC(C)(C)O[C@@H]5[C@H]4O3)c2)cc1	17 mm	12 mm	0 mm	21 mm	25 mm	18 mm	16 mm	0 mm	125 µg/mL (≈ 305 µM)	250 µg/mL (≈ 611 µM)	500 µg/mL (≈ 1220 µM)	62.5 µg/mL (≈ 153 µM)	31.2 µg/mL (≈ 76.4 µM)	62.5 µg/mL (≈ 153 µM)	125 µg/mL (≈ 305 µM)	500 µg/mL (≈ 1220 µM)
Cc1ccccc1B1OC[C@H]2O[C@@H]3OC(C)(C)O[C@@H]3[C@H]2O1	9 mm	6 mm	7 mm	6 mm	7 mm	6 mm	7 mm	6 mm	125 µg/mL (≈ 431 µM)	250 µg/mL (≈ 862 µM)	250 µg/mL (≈ 862 µM)	125 µg/mL (≈ 431 µM)	250 µg/mL (≈ 862 µM)	250 µg/mL (≈ 862 µM)	500 µg/mL (≈ 1720 µM)	500 µg/mL (≈ 1720 µM)
CC1(C)O[C@H]2O[C@@H]3COB(c4cccc(/C=N/c5ccc(F)cc5)c4)O[C@@H]3[C@H]2O1	18 mm	11 mm	20 mm	21 mm	24 mm	16 mm	19 mm	0 mm	62.5 µg/mL (≈ 157 µM)	125 µg/mL (≈ 315 µM)	31.2 µg/mL (≈ 78.7 µM)	31.2 µg/mL (≈ 78.7 µM)	31.2 µg/mL (≈ 78.7 µM)	62.5 µg/mL (≈ 157 µM)	62.5 µg/mL (≈ 157 µM)	250 µg/mL (≈ 629 µM)
COc1ccc(/C=N/c2cccc(B3OC[C@H]4O[C@@H]5OC(C)(C)O[C@@H]5[C@H]4O3)c2)c(O)c1	22 mm	21 mm	15 mm	0 mm	21 mm	19 mm	13 mm	0 mm	62.5 µg/mL (≈ 147 µM)	62.5 µg/mL (≈ 147 µM)	125 µg/mL (≈ 294 µM)	250 µg/mL (≈ 588 µM)	62.5 µg/mL (≈ 147 µM)	62.5 µg/mL (≈ 147 µM)	250 µg/mL (≈ 588 µM)	250 µg/mL (≈ 588 µM)
CC1(C)O[C@H]2O[C@@H]3COB(c4cccc(/N=C/c5cc([N+](=O)[O-])ccc5O)c4)O[C@@H]3[C@H]2O1	23 mm	25 mm	21 mm	21 mm	28 mm	18 mm	23 mm	22 mm	31.2 µg/mL (≈ 71 µM)	15.6 µg/mL (≈ 35.5 µM)	31.2 µg/mL (≈ 71 µM)	31.2 µg/mL (≈ 71 µM)	15.6 µg/mL (≈ 35.5 µM)	62.5 µg/mL (≈ 142 µM)	31.2 µg/mL (≈ 71 µM)	62.5 µg/mL (≈ 142 µM)
CC1(C)O[C@H]2O[C@@H]3COB(c4cccc(N)c4)O[C@@H]3[C@H]2O1	17 mm	13 mm	12 mm	13 mm	11 mm	12 mm	13 mm	0 mm	125 µg/mL (≈ 429 µM)	250 µg/mL (≈ 859 µM)	500 µg/mL (≈ 1720 µM)	500 µg/mL (≈ 1720 µM)	500 µg/mL (≈ 1720 µM)	500 µg/mL (≈ 1720 µM)	500 µg/mL (≈ 1720 µM)	500 µg/mL (≈ 1720 µM)
Cc1ccc(/N=C/c2cccc(B3OC[C@H]4O[C@@H]5OC(C)(C)O[C@@H]5[C@H]4O3)c2)cc1	13 mm	12 mm	13 mm	12 mm	20 mm	20 mm	17 mm	14 mm	250 µg/mL (≈ 636 µM)	250 µg/mL (≈ 636 µM)	125 µg/mL (≈ 318 µM)	500 µg/mL (≈ 1270 µM)	125 µg/mL (≈ 318 µM)	125 µg/mL (≈ 318 µM)	250 µg/mL (≈ 636 µM)	125 µg/mL (≈ 318 µM)
CC1(C)O[C@H]2O[C@@H]3COB(c4cccc(/N=C/c5ccccc5O)c4)O[C@@H]3[C@H]2O1	20 mm	22 mm	13 mm	13 mm	22 mm	16 mm	14 mm	0 mm	62.5 µg/mL (≈ 158 µM)	62.5 µg/mL (≈ 158 µM)	250 µg/mL (≈ 633 µM)	250 µg/mL (≈ 633 µM)	62.5 µg/mL (≈ 158 µM)	125 µg/mL (≈ 316 µM)	125 µg/mL (≈ 316 µM)	500 µg/mL (≈ 1270 µM)
